From patent US10259810B2, “N-sulfonylated pyrazolo[3,4-b]pyridin-6-carboxamides and method of use” (AbbVie S.à.r.l., priority 2015, dated 2019) come the findings set out here.

Structures are written as SMILES.

Common to all, as to format: cell-based
The target in test [1] is T1, ΔF508-CFTR (Homo sapiens, UniProt P13569, DEL508-508).
T1 construct: host or cells: CFBE41o-, doxycycline-inducible
The experiment in a line: CFTR cell surface levels using HRP-tagged ΔF508-CFTR expressing CFBE cells, intrinsic corrector capacity. Further details: % Activation: concentration or dose not given beside the values. The settings on record: HRP-tagged ΔF508-CFTR expressing CFBE41o- cells, compound alone (intrinsic corrector capacity), 20 hours at 33° C.; for EC50: read-out: EC50. The essentials: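 Read-out: chemiluminescent HRP activity of ECL4-HRP-tagged ΔF508-CFTR at the cell surface, 15 min substrate in dark. Normalized as 100×(sample−DMSO)/(positive control−DMSO).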

The target in test [2] is T1, ΔF508-CFTR. The experiment in a line: CFTR cell surface levels using HRP-tagged ΔF508-CFTR expressing CFBE cells, in the presence of a co-corrector. The following applies: HRP-tagged ΔF508-CFTR CFBE cells, in the presence of 3 μM co-corrector; for EC50: read-out: EC50. In a few lines: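 Chemiluminescent read-out of surface HRP (15 min, dark) after PBS washes. Activity is normalized as 100×(sample−DMSO)/(3 μM co-corrector alone−DMSO).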

In another test the target is T2, CFTR ΔF508 (Homo sapiens, UniProt P13569, DEL508-508).
T2 construct: bronchial epithelial cells isolated from CF patients homozygous for the CFTR ΔF508 mutation; McGill University; Asterand; University of North Carolina hAEC-CF; host or cells: primary human bronchial epithelial cells from CF patients homozygous for ΔF508, differentiated at air-liquid interface
T2 sequence (P13569 with tags, fused parts or gaps DEL508-508): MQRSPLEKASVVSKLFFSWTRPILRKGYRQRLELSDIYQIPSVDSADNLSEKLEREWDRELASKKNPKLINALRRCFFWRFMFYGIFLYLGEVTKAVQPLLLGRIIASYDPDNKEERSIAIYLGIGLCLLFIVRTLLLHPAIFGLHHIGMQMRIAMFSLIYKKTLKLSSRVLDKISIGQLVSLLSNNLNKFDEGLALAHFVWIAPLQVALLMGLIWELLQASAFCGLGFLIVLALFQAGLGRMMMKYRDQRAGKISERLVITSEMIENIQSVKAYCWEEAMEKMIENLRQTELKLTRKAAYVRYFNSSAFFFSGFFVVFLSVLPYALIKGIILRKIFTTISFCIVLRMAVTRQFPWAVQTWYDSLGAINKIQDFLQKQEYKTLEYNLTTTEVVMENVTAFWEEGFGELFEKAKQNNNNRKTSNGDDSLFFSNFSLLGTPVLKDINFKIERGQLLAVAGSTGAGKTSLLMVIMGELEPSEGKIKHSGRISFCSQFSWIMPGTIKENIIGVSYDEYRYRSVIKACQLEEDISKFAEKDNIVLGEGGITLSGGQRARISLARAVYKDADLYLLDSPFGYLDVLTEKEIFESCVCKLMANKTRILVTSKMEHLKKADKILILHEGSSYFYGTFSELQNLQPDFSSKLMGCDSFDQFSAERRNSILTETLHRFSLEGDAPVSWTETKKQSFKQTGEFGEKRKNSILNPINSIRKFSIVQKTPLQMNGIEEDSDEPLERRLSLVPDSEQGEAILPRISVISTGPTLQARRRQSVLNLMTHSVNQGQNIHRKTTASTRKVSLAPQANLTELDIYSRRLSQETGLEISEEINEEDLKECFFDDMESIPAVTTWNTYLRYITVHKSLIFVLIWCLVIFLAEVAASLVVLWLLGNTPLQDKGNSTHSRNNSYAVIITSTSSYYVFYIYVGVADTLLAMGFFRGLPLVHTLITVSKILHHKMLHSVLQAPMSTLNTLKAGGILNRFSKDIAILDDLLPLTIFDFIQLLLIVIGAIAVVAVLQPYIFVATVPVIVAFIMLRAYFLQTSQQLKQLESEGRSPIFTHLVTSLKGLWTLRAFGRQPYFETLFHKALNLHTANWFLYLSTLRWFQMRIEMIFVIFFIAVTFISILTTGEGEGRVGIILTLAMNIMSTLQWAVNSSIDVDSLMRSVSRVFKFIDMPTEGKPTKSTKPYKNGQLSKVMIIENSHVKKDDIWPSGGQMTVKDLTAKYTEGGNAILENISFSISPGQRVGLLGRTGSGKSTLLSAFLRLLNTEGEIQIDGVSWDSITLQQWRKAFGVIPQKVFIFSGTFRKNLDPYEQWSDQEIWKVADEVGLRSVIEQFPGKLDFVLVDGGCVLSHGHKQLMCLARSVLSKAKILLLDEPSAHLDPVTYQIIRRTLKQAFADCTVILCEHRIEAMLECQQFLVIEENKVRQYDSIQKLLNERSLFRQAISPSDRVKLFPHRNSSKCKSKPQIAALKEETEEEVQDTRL
The experiment in a line: Chronic TECC assay, primary bronchial epithelial cells of CF patients homozygous for CFTR ΔF508 (corrector, co-corrector and potentiator). The settings on record: chronic TECC, AUC = full area under the curve upon forskolin stimulation; for EC50: read-out: EC50 (nM) (AUC**); for % Activity at 3 μM (AUC**): test compound at 3 μM; for % Activity at 1 μM (AUC**): test compound at 1 μM. In a few lines: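 Primary bronchial epithelial cells from ΔF508-homozygous CF patients on collagen IV-coated Transwells were chronically treated with test compound plus corrector and potentiator, which were re-added before recording. Ieq was derived from PD and Rt in NaCl-Ringer, pH 7.4, at 37° C, with apical amiloride and bilateral forskolin, recorded every 2 min over 20 min. Ieq increase was normalized to controls, and EC50 was taken from per-well concentrations.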

T1 sequence (P13569 with tags, fused parts or gaps DEL508-508): as above

On to `COC1CCN(C2CCN(c3cc(C(=O)NS(=O)(=O)N4CCC4)nc4c3c(C3CCC3)nn4-c3ccc(F)cc3)CC2)CC1` [Compound 632, N-(azetidine-1-sulfonyl)-3-cyclobutyl-1-(4-fluorophenyl)-4-(4-methoxy[1,4'-bipiperidin]-1'-yl)-1H-pyrazolo[3,4-b]pyridine-6-carboxamide], for which, on ΔF508-CFTR [1], the “% Activation” value is listed as 252.75% and the EC50 (as a rule, the concentration giving half of the maximal effect) stood at 304 nM. At ΔF508-CFTR [2], the “% Activation” value was found to be 466.83% and the 50% effective concentration (EC50) was 154 nM. In addition, on CFTR ΔF508, the EC50 came to 29.3 nM and the “% Activity at 3 μM (AUC**)” value turned out to be 237.1158%.

Turning to `CC(C)Oc1nn(C2CCCCC2)c2nc(C(=O)NS(C)(=O)=O)cc(-c3ccc(CN4CC(N(C)C)C4)cc3)c12` [Compound 633, 1-cyclohexyl-4-(4-{[3-(dimethylamino)azetidin-1-yl]methyl}phenyl)-N-(methanesulfonyl)-3-[(propan-2-yl)oxy]-1H-pyrazolo[3,4-b]pyridine-6-carboxamide], the entries for the “% Activation” value on ΔF508-CFTR [1] and at ΔF508-CFTR [2] were 180.46% and 400.44%, respectively. For the same molecule, the EC50 at ΔF508-CFTR [1] was 345 nM; on ΔF508-CFTR [2] it was 207 nM; on CFTR ΔF508 it was 204 nM.

With `CC(C)Oc1nn(C2CCCCC2)c2nc(C(=O)NS(C)(=O)=O)cc(-c3ccc(CN4CCN(C(C)C)CC4)cc3)c12` [Compound 634, 1-cyclohexyl-N-(methanesulfonyl)-3-[(propan-2-yl)oxy]-4-(4-{[4-(propan-2-yl)piperazin-1-yl]methyl}phenyl)-1H-pyrazolo[3,4-b]pyridine-6-carboxamide], the “% Activation” value at ΔF508-CFTR [1] is given as 227.46%; at ΔF508-CFTR [2], 439.44%. The EC50 on ΔF508-CFTR [1] was 200 nM; on ΔF508-CFTR [2], 78.8 nM; on CFTR ΔF508, 138 nM.

Take `CNS(=O)(=O)NC(=O)c1cc(N2CCC(N3CCN(C(C)C)CC3)CC2)c2c(C3CCC3)nn(-c3ccc(F)cc3)c2n1` [Compound 638, 3-cyclobutyl-1-(4-fluorophenyl)-N-(methylsulfamoyl)-4-{4-[4-(propan-2-yl)piperazin-1-yl]piperidin-1-yl}-1H-pyrazolo[3,4-b]pyridine-6-carboxamide]: the “% Activation” value was 398.98% at ΔF508-CFTR [1] and 606.08% on ΔF508-CFTR [2]. In addition, the EC50 at ΔF508-CFTR [1] was 241 nM; on ΔF508-CFTR [2] it was 95 nM; at CFTR ΔF508, 11.2 nM. For the same molecule, the “% Activity at 3 μM (AUC**)” value at CFTR ΔF508 turned out to be 341.3493%.

With `COC1CCN(C2CCN(c3cc(C(=O)NS(=O)(=O)N4CC(OC)C4)nc4c3c(C3CCC3)nn4-c3ccc(F)cc3)CC2)CC1` [Compound 645, 3-cyclobutyl-1-(4-fluorophenyl)-N-(3-methoxyazetidine-1-sulfonyl)-4-(4-methoxy[1,4'-bipiperidin]-1'-yl)-1H-pyrazolo[3,4-b]pyridine-6-carboxamide], the “% Activation” value at ΔF508-CFTR [1] is on record as 194.33%; on ΔF508-CFTR [2] it was 384.37%. In addition, the EC50 on ΔF508-CFTR [1] stood at 331 nM; on ΔF508-CFTR [2], 244 nM. At CFTR ΔF508, the “% Activity at 3 μM (AUC**)” value turned out to be 246.4648%.

As for `COC1CCN(C2CCN(c3cc(C(=O)NS(=O)(=O)N4CC(F)C4)nc4c3c(C3CCC3)nn4-c3ccc(F)cc3)CC2)CC1` [Compound 646, 3-cyclobutyl-N-(3-fluoroazetidine-1-sulfonyl)-1-(4-fluorophenyl)-4-(4-methoxy[1,4'-bipiperidin]-1'-yl)-1H-pyrazolo[3,4-b]pyridine-6-carboxamide], on ΔF508-CFTR [1], the “% Activation” value was found to be 236.13% and the EC50 is 400 nM. Also, on ΔF508-CFTR [2], the “% Activation” value came out at 447.9% and the EC50 was 259 nM. Besides, at CFTR ΔF508, the EC50 was found to be 23.5 nM and the “% Activity at 3 μM (AUC**)” value was 276.7167%.

As to `COC1CCN(C2CCN(c3cc(C(=O)NS(=O)(=O)N4CCOCC4)nc4c3c(C3CCC3)nn4-c3ccc(F)cc3)CC2)CC1` [Compound 647, 3-cyclobutyl-1-(4-fluorophenyl)-4-(4-methoxy[1,4'-bipiperidin]-1'-yl)-N-(morpholine-4-sulfonyl)-1H-pyrazolo[3,4-b]pyridine-6-carboxamide], on ΔF508-CFTR [1], the “% Activation” value was found to be 164.47% and the concentration giving a half-maximal response (EC50) was found to be 216 nM. On ΔF508-CFTR [2], the “% Activation” value came to 337.07% and the EC50 amounted to 112 nM. Moreover, at CFTR ΔF508, the EC50 came out at 151 nM and the “% Activity at 3 μM (AUC**)” value came to 420.0246%.

Turning to `CS(=O)(=O)NC(=O)c1cc(C2CCC(N3CCOCC3)CC2)c2c(C3CCC3)nn(-c3ccccc3)c2n1` (centres unmarked) [Compound 648, 3-cyclobutyl-N-(methanesulfonyl)-4-[4-(morpholin-4-yl)cyclohexyl]-1-phenyl-1H-pyrazolo[3,4-b]pyridine-6-carboxamide], on ΔF508-CFTR [1], the “% Activation” value was determined as 109.65% and the concentration giving a half-maximal response (EC50) stood at 316 nM. Besides, on ΔF508-CFTR [2], the “% Activation” value is given as 288.85% and the half-maximal effective concentration (EC50) was 110 nM. In addition, the “% Activity at 1 μM (AUC**)” value on CFTR ΔF508 worked out at 366.0679%.

Consider `CN(C)S(=O)(=O)NC(=O)c1cc(C2CCC(N3CCOCC3)CC2)c2c(C3CCC3)nn(-c3ccccc3)c2n1` (centres unmarked) [Compound 649, 3-cyclobutyl-N-(dimethylsulfamoyl)-4-[4-(morpholin-4-yl)cyclohexyl]-1-phenyl-1H-pyrazolo[3,4-b]pyridine-6-carboxamide], for which, on ΔF508-CFTR [1], the “% Activation” value was determined as 69.12% and the EC50 was 370 nM. For the same molecule, at ΔF508-CFTR [2], the “% Activation” value came to 231.7% and the EC50 came to 152 nM. The “% Activity at 3 μM (AUC**)” value at CFTR ΔF508 is on record as 224.5026%.

Consider `CN(C(=O)c1cc(N2CCC(N3CCOCC3)CC2)c2c(C3CCC3)nn(-c3ccc(F)cc3)c2n1)S(C)(=O)=O` [Compound 654, 3-cyclobutyl-1-(4-fluorophenyl)-N-(methanesulfonyl)-N-methyl-4-[4-(morpholin-4-yl)piperidin-1-yl]-1H-pyrazolo[3,4-b]pyridine-6-carboxamide], for which, on ΔF508-CFTR [1], the “% Activation” value was 73.925% and the EC50 was determined as 5080 nM. Further, at ΔF508-CFTR [2], the “% Activation” value amounted to 347.6% and the EC50 amounted to 114 nM. In addition, at CFTR ΔF508, the “% Activity at 1 μM (AUC**)” value is on record as 293.3333%.

Regarding `CCS(=O)(=O)N(C)C(=O)c1cc(N2CCC(CN3CCCC3)CC2)c2c(C3CCC3)nn(-c3ccccc3)c2n1` [Compound 659, 3-cyclobutyl-N-(ethanesulfonyl)-N-methyl-1-phenyl-4-{4-[(pyrrolidin-1-yl)methyl]piperidin-1-yl}-1H-pyrazolo[3,4-b]pyridine-6-carboxamide], the “% Activation” value is 96.44% at ΔF508-CFTR [1] and 290.95% on ΔF508-CFTR [2]. Further, the 50% effective concentration (EC50) at ΔF508-CFTR [1] is 142 nM; at ΔF508-CFTR [2], 130 nM. Further, the “% Activity at 3 μM (AUC**)” value at CFTR ΔF508 came to 251.6549%.
